# Measurements reported in patent US8771716B2, “Modified release analgesic suspensions” (McNeil-PPC, Inc., priority 2006, dated 2014).
# Key:
# [1] = Typical duration of action (period of therapeutic effect) of an immediate release dose, from labeling; assay type: in vivo
# From the text: As used herein, “ATDAIRD” shall mean the average therapeutic duration of action of an effective immediate release dose” of a particular active ingredient. […] The therapeutic duration of action of a particular active ingredient can readily be determined from the dosing instructions in the labeling for immediate release products containing that particular active ingredient.
# [2] = decongestant; typically administered every 2 to 4 hours; cited from earlier work
Structure (SMILES),ATDAIRD (average therapeutic duration of action of an effective immediate release dose) [1],duration of therapeutic effect [2]
"CC(C)Cc1ccc(C(C)C(=O)O)cc1 (centres unmarked) [ibuprofen, 2-(4-isobutylphenyl)-propionic acid]",5 h,–
CN[C@@H](C)[C@@H](O)c1ccccc1 [psuedoephedrine],about 3 hours,–
CC(C(=O)O)c1cccc(C(=O)c2ccccc2)c1 (centres unmarked) [ketoprofen],5 h,–
"CNC[C@H](O)c1cccc(O)c1 [phenylephrine, benzynemethanol, 3-hydroxy-α-[(methylamino)methyl]]",–,about 2.5 hours
COc1ccc2cc([C@H](C)C(=O)O)ccc2c1 [naproxen],10 h,–
